“And” between values parts separate entries of the source, which are not always exact repeats. Equal entries are not always repeated.
Tests used:
MRSA in the nares = assay: Nasal colonization human study Part One, quantitative swab cultures, MRSA; format: in vivo, S. aureus; settings: for MRSA Average: laser w/ drug arm, one line per patient
Experimental: (§1) This investigational protocol was an open-label study of subjects who are colonized with MRSA in the nares (nostril). The study was done in two parts.
(§2) In this human study, three arms were produced. […] This was done on day 1 and again on day three; and Arm #3: ⅓ of the subjects were treated with the laser and then a topical antibiotic three times a day for five days. Prior to enrollment in this study, prospective subjects met all of the following criteria: age≧18 years and ≦70 years of age; previous positive MRSA culture; negative urine pregnancy test or post-menopausal for one year; willing to comply with study requirements, including return visits and self-application of topical antibiotics; and willing to provide informed consent to participate. Prospective subjects were excluded from this study if any of the following criteria were met: pregnancy; patients who are severely immunocompromised (such as may occur in AIDS, renal transplant regimens, immunosuppressed states consequent to malignancy or agents used in rendering oncologic care, or who suffer from end stage renal disease); diabetic patients; allergy to antimicrobials being used in the study (group 3).
(§3) All participants underwent an initial quantitative assessment for nasal carriage of S. aureus, during their first visit. Each participant had the anterior nares (each nostril) sampled for culture with a circular movement (three rotations on each side) of a sterile wood applicator plain Rayon® tipped swab in each nostril and placed in a labled tube. 2 ml of room temp phosphate buffered saline was placed in the tube after the removal of the swab (to completely cover the swab in the tube). Each swab was then placed back in the tube and the tube was then vortexed for 15 seconds to disperse isolates of MRSA and/or MSSA into the PBS solution. Aliquots of PBS from the tube were plated in the following manner: 100 μl from each tube was lawn plated in triplicate (3×) on selective Chromogenic MRSA And MSSA agar. Plates were placed in incubator within 30 minutes of the plating procedure, and colonies were counted manually, and recorded 18 hrs after plating.
(§4) On day one of the study, all subjects underwent this exact procedure in arms 1 and 2 of the study two minutes before the laser procedure. They again were sampled in the same manner 2 minutes after the laser procedure. In the third arm of the study, they were swabbed two minutes before the procedure and the first antibiotic administration was completed after the laser therapy. The post/laser swab sample was taken for this arm 20 min later.
(§5) On day three of the study, all subjects from arms one two and three underwent the exact same procedures as day 1 of the study.
(§6) On day five all subjects from all arms underwent just one swabbing per nostril with the exact same sampling procedure one time.
(§7) Application of H202: 3% OTC hydrogen peroxide was applied to a cotton pledget for application to the subject prior to irradiation. This was inserted in the nose for 120 seconds and then removed. The subjects were then given doses of phototherapeutic near infrared radiation as described. Application of generic topical Antimicrobial: The subjects were first given doses of phototherapeutic near infrared radiation as described. […] The swab was inserted approximately 1 cm in to the anterior nares and rotated 360 degrees several times and removed. Patients were instructed to perform the exact application procedure 3 times a day for the remaining 5 days.
(§8) The NOVEON™ laser was used for two (2) six-minute treatments in each nostril on day (1) and day (3) of the study.
(§9) The laser was calibrated before the first treatment of the day. Intermittent temperature testing of the treatment site was performed on each subject using a noncontact infrared thermometer (Raytek Minitemp), 30-60 second intervals.

MRSA = assay: CFU counts of MRSA plated on agar with antibiotic after sub-lethal NIMELS laser (Examples IX-XII); format: cell-based, Staphylococcus aureus; settings: for MRSA colony count, EXPERIMENTAL: sub-lethal NIMELS laser
Source text: The following parameters illustrate the general bacterial methods according to the invention as applied to MRSA for the in vitro Experiments V and VIII-XII.
The null hypothesis is μ1−μ2=0 and μ1−μ3=0 where:
a) μ1 is sub-lethal dosimetry from the NIMEL laser system on MRSA as a control and;
The null hypothesis is μ1−μ2=0 and μ1−μ3=0 where: • a) μ1 is sub-lethal dosimetry from the NIMEL laser system on MRSA as a control and; • b)μ2 is the same sub-lethal dosimetry from the NIMEL laser system on MRSA with the addition of tetracycline at resistant MIC just below effectiveness level and; • c) μ3 is the same sub-lethal dosimetry from the NIMEL laser system on MRSA with the addition of rifampin at resistant MIC just below effectiveness level.
The null hypothesis is μ1−μ2=0 and μ1−μ3=0 where: a) μ1 is sub-lethal dosimetry from the NIMEL laser system on MRSA as a control and; b)μ2 is the same sub-lethal dosimetry from the NIMEL laser system on MRSA with the addition of methicillin at resistant MIC just below effectiveness level and; […]

MRSA (ATCC BAA-43) = assay: MRSA/antimicrobial potentiation, CFU on TSB agar with and without antibiotic after laser (Example XXII, Experiments 1-4); format: cell-based, Staphylococcus aureus subsp. aureus; settings: for CFU/ml / CFU (single plate count) / AVG (CFU): Drug yes; for CFU (single plate count): agar with 30 μg/ml methicillin, 0.5 μg/ml penicillin G or 4 μg/ml erythromycin, 24 hrs 37° C., plates 1-5; for AVG (CFU): mean of 5 plates; for Drug Effect: CFU with drug relative to without drug; for Laser Effect (+Drug): Exp vs Cont, both with drug
Experimental: Four separate experiments have been performed.
Eight different laser dosages were used to treat a saline-suspension of logarithmically growing MRSA, labeled A1 to H1.
The treated and a control untreated suspension were diluted and plated in triplicate on trypic soy agar with or without 30 μg/ml methicillin After 24 hrs of growth at 37° C. colonies were counted.
CFU (colony forming units) were compared between the plates with and without methicillin for both control (untreated) and treated MRSA.
The treated and a control untreated suspension were diluted and plated in triplicate on trypic soy agar with or without 30 μg/mlmethicillin.
After 24 hrs of growth at 37° C. colonies were counted.
The treated and a control untreated suspension were diluted and plated in pentuplicate on trypic soy agar with or without 30 μg/ml methicillin.

MSSA in the nares = assay: Nasal colonization human study Part One, quantitative swab cultures, MSSA; format: in vivo, S. aureus; settings: laser w/ drug arm, one line per patient
Experimental: as §1, §2, §3, §4, §5, §6, §7, §8, §9

[1] = Cont (no laser), groups A4/C4/E4
[2] = Cont (no laser), groups B4/D4/F4
[3] = Exp (laser 870+930 at 5 W 14 min, then 930 at 6 W 9 min), groups B4/D4/F4
[4] = Exp (laser 870+930 at 5.5 W 12 min, then 930 at 8 W 6 min), groups A4/C4/E4
[5] = Initial Analysis, Post-treatment swab, left nostril
[6] = Initial Analysis, Post-treatment swab, right nostril
[7] = Initial Analysis, Pre swab (baseline), left nostril, mean of triplicate plates
[8] = Initial Analysis, Pre swab (baseline), right nostril
[9] = Second Analysis, Post-treatment swab, left nostril
[10] = Second Analysis, Post-treatment swab, right nostril
[11] = Second Analysis, Pre swab, left nostril
[12] = Second Analysis, Pre swab, right nostril
[13] = Third Analysis, Swab, left nostril
[14] = Third Analysis, Swab, right nostril

Q: With `OO` [H2O2, hydrogen peroxide] as the molecule, how does the “outcome of Laser plus H2O2 arm on nasal colonization” value (MRSA in the nares; humans, topical 3% H2O2 120 seconds, then laser, day 1 and day 3) read?
A: some transient benefit in some of the patients, but no obvious long-term efficacy

Q: Which “effect of sub-lethal NIMELS irradiation on antibiotic action against MRSA colonies (words)” value (MRSA; antibiotic at resistant MIC just below effectiveness level) does the source give for `CC1(C)S[C@@H]2[C@H](NC(=O)Cc3ccccc3)C(=O)N2[C@H]1C(=O)O` [Penicillin, penicillin G] here?
A: successful reversal of MRSA resistance

Q: What about the CFU/ml (MRSA (ATCC BAA-43); [1]) of the same molecule?
A: 3.25E+08 CFU/ml

Q: And the “CFU (single plate count)” value (MRSA (ATCC BAA-43); [1])?
A: 106 CFU and 99 CFU and 102 CFU and 113 CFU and 122 CFU

Q: And the “AVG (CFU)” value (MRSA (ATCC BAA-43); [1])?
A: 108.4 CFU

Q: What about the CFU/ml (MRSA (ATCC BAA-43); [2]) of the same molecule?
A: 3.98E+08 CFU/ml

Q: What about the “CFU (single plate count)” value (MRSA (ATCC BAA-43); [2]) of the same molecule?
A: 101 CFU and 111 CFU and 138 CFU and 132 CFU and 182 CFU

Q: And the “AVG (CFU)” value (MRSA (ATCC BAA-43); [2])?
A: 132.8 CFU

Q: What about the “Drug Effect” value (MRSA (ATCC BAA-43); [1]) of the same molecule?
A: 0.75

Q: And the “Drug Effect” value (MRSA (ATCC BAA-43); [2])?
A: 1.07

Q: What about the CFU/ml (MRSA (ATCC BAA-43); [3]) of the same molecule?
A: 7.14E+07 CFU/ml

Q: And the “AVG (CFU)” value (MRSA (ATCC BAA-43); [3])?
A: 23.8 CFU

Q: And the “Drug Effect” value (MRSA (ATCC BAA-43); [3])?
A: 0.31

Q: And the CFU/ml (MRSA (ATCC BAA-43); [4])?
A: 9.12E+07 CFU/ml

Q: What about the “AVG (CFU)” value (MRSA (ATCC BAA-43); [4]) of the same molecule?
A: 30.4 CFU

Q: What about the “Drug Effect” value (MRSA (ATCC BAA-43); [4]) of the same molecule?
A: 0.34

Q: What about the “Laser Effect (+Drug)” value (MRSA (ATCC BAA-43); laser 870+930 at 5 W 14 min, then 930 at 6 W 9 min, groups B4/D4/F4) of the same molecule?
A: 0.18

Q: And the “Laser Effect (+Drug)” value (MRSA (ATCC BAA-43); laser 870+930 at 5.5 W 12 min, then 930 at 8 W 6 min, groups A4/C4/E4)?
A: 0.28

Q: What about the “synergistic effect of NIMELS with antibiotic in growth inhibition of MRSA colonies” value (MRSA (ATCC BAA-43); FIG. 17) of the same molecule?
A: being potentiated by sub-lethal NIMELS dosimetry

Q: What does the source list for `OO` [Peroxide]?
A: s. aureus Average (MSSA in the nares; [5]): 0 CFU (2×) and 20 CFU and 1 CFU; s. aureus Average (MSSA in the nares; [6]): 0 CFU and 506 CFU and 146 CFU and 3272 CFU; s. aureus Average (MSSA in the nares; [7]): 1 CFU and 53 CFU and 17 CFU and 124 CFU; s. aureus Average (MSSA in the nares; [8]): 0 CFU and 29 CFU and 285 CFU and 3996 CFU; s. aureus Average (MSSA in the nares; [9]): 0 CFU (3×) and 10 CFU; s. aureus Average (MSSA in the nares; [10]): 0 CFU and 126 CFU and 5 CFU and 3589 CFU; s. aureus Average (MSSA in the nares; [11]): 1 CFU and 206 CFU and 4 CFU and 12 CFU; s. aureus Average (MSSA in the nares; [12]): 1 CFU and 94 CFU and 257 CFU and 4373 CFU; s. aureus Average (MSSA in the nares; [13]): 1 CFU and 868 CFU and 28 CFU and 0 CFU; s. aureus Average (MSSA in the nares; [14]): 1 CFU and 586 CFU and 52 CFU and 3493 CFU; MRSA Average (MRSA in the nares; [5]): 0 CFU (2×) and 22 CFU and 1 CFU; MRSA Average (MRSA in the nares; [6]): 0 CFU (2×) and 455 CFU and 2752 CFU; MRSA Average (MRSA in the nares; [7]): 0 CFU (2×) and 63 CFU and 4 CFU; MRSA Average (MRSA in the nares; [8]): 0 CFU (2×) and 30 CFU and 4032 CFU; MRSA Average (MRSA in the nares; [9]): 0 CFU (3×) and 12 CFU; MRSA Average (MRSA in the nares; [10]): 0 CFU (2×) and 114 CFU and 3347 CFU; MRSA Average (MRSA in the nares; [11]): 0 CFU (2×) and 180 CFU and 17 CFU; MRSA Average (MRSA in the nares; [12]): 0 CFU (2×) and 90 CFU and 3099 CFU; MRSA Average (MRSA in the nares; [13]): 0 CFU (3×) and 827 CFU; MRSA Average (MRSA in the nares; [14]): 0 CFU (2×) and 563 CFU and 3648 CFU

Q: `CO[C@H]1/C=C/O[C@@]2(C)Oc3c(C)c(O)c4c(O)c(c(/C=N/N5CCN(C)CC5)c(O)c4c3C2=O)NC(=O)/C(C)=C\C=C\[C@H](C)[C@H](O)[C@@H](C)[C@@H](O)[C@@H](C)[C@H](OC(C)=O)[C@@H]1C` [Rifampin] was tested. Which “MRSA colony count, CONTROL” value (MRSA; no laser, agar with rifampin 90 ug/ml, samples E1, E2, E3, 5 replicates each) did it give?
A: 183 and 210 (3×) and 166 and 228 and 188 and 274 and 180 and 240 and 288 and 280 and 290 and 300

Q: What about the “MRSA colony count, EXPERIMENTAL” value (MRSA; agar with rifampin 90 ug/ml, samples E1, E2, E3, 5 replicates each) of the same molecule?
A: 280 (2×) and 272 and 320 and 330 and 284 (2×) and 270 and 225 and 200 (2×) and 210 and 378

Q: `CN(C)[C@@H]1C(O)=C(C(N)=O)C(=O)[C@@]2(O)C(O)=C3C(=O)c4c(O)cccc4[C@@](C)(O)[C@H]3C[C@@H]12` [Tetracycline] was tested. Which “MRSA colony count, CONTROL” value (MRSA; no laser, agar with tetracyc. 4 ug/ml, samples E1, E2, E3, 5 replicates each) did it give?
A: 240 and 256 and 268 and 310 (2×) and 255 and 280 and 283 and 263 and 260 and 368 and 380 and 375 and 390

Q: And the “MRSA colony count, EXPERIMENTAL” value (MRSA; agar with tetracyc. 4 ug/ml, samples E1, E2, E3, 5 replicates each)?
A: 42 (2×) and 18 (2×) and 28 and 27 and 16 and 72 and 67 and 45 and 47 and 74 and 56 and 46 and 48

Q: Which results are given for `COc1cc(Cc2cnc(N)nc2N)cc(OC)c1OC` [Trimethoprim]?
A: MRSA colony count, CONTROL (no laser) (MRSA; no laser, agar with trimeth 2 ug/ml, replicates B-4 1 to 5): 213 and 198 and 240 and 220 and 145; MRSA colony count, EXPERIMENTAL (MRSA; agar with trimeth 2 ug/ml, replicates B-4 1 to 5): 100 and 110 and 125 and 138 and 115

From patent publication US20110295343A1, “NEAR-INFRARED ELECTROMAGNETIC MODIFICATION OF CELLULAR STEADY-STATE MEMBRANE POTENTIALS” (priority 2008, published 2011)
